Laboratory results published in US10736343B2, “Antimicrobial formulations with pelargonic acid” (ANITOX CORPORATION, priority 2011, dated 2020).
Values after ≈ are worked out from the molar mass of the structure shown. Read-outs that look alike come from different tables or passages of the source.

How the values were obtained:
[1] = system: Salmonella typhimurium (ATCC #14028); assay: Salmonella typhimurium suspension in test tubes with formaldehyde and/or pelargonic acid, plate count (Example 1); type: cell-based
Experimental: (§1) Solutions were vortexed for 10 seconds to ensure mixing. There were three replicate tubes per treatment. A suspension of Salmonella typhimurium (10^3 cfu/ml, ATCC #14028) was added to three test tubes containing each formulation. The solutions were vortexed, incubated at room temperature for 24 hours plated on SMA (Standard Methods Agar) for 24 hours before counting Salmonella colonies.

[2] = system: Salmonella typhimurium (ATCC #14028); assay: Salmonella typhimurium suspension in test tubes with formaldehyde and/or pelargonic acid, plate count (Example 2); type: cell-based
Experimental: as §1, with “24 hours and plated on” for “24 hours plated on”

[3] = system: Staphylococcus aureus, E. coli and Salmonella typhimurium; settings: cited from earlier work
Salmonella typhimurium [4] = assay: In vitro test of aldehyde / hexenal / pelargonic acid formulations against Salmonella typhimurium suspension (Example 7); type: cell-based; settings: for ability to replace trans-2-hexenal (in words): At both 5% and 10% pelargonic acid
Experimental: Seven aldehydes (butyraldehyde, citral, undecylenic aldehyde, decadienal, cinnamaldehyde, decanal and furfural) were blended with trans-2-hexenal, pelargonic acid, propionic acid and acetic acid as presented in Table 9. A 20% (X−1) and a 25% (F18) hexanal: organic acid product were included as positive controls. […] Solutions were vortexed for 10 seconds to uniformly mix the solution. There were three replicate tubes per treatment. […] The solutions were vortexed, incubated at room temperature for 24 hours and then plated on XLT-4 agar for 48 hours before counting Salmonella colonies.

yeast (10^5 CFU/bottle) = settings: cited from earlier work
M. gypseum = settings: cited from earlier work
parasite C. irritans = settings: cited from earlier work
Salmonella typhimurium [5] = assay: In vitro test of five formulations against Salmonella typhimurium suspension (Example 3); type: cell-based; settings: pelargonic acid at 10% of formula
Experimental: Formulations were added to test tubes at concentrations of 0.01% and 0.05%. Solutions were vortexed for 10 seconds to ensure mixing. There were three replicate tubes per treatment.
A suspension of Salmonella typhimurium (10^4 cfu/ml) was added to three test tubes containing the different dilutions of each formulation. The tubes were vortexed, incubated at room temperature for 24 hours and then the solution was plated on SMA (Standard Methods Agar) for 48 hours before counting Salmonella colonies.

Salmonella typhimurium [6] = assay: Residual activity in treated poultry mash feed contaminated after treatment (Example 6); type: cell-based; settings: for % Reduction at 13 Days: feed contaminated 13 days post treatment
Experimental: Formula 1 from Example 3 composed of 25% trans-2-hexenal, 5% pelargonic acid and 70% aqueous organic acids was compared to trans-2-hexenal for residual activity in feed. Poultry mash feed was treated with 0.1, 0.25, 0.5 or 1.0 kg/ton of hexenal compared to 1 kg/ton of the hexenal: pelargonic acid combination product (0.25 kg/ton of hexenal), At 1, 6 and 13 days post treatment, feed was contaminated with a meat and bone meal inoculum of Salmonella typhimurium at a level of 10^3 cfu/g of feed. After 24 hours, 10 g of subsamples of the untreated and treated feed were suspended in 90 ml Butterfield buffer. Dilutions were plated on XLT-4 agar and incubated at 37° C. for 48 hours before counting Salmonella colonies.

P. syringae pathovars = settings: cited from earlier work
[7] = rat, in vivo; cited from earlier work
[8] = system: apricots, peaches and nectarines; settings: cited from earlier work
Phoma mycelium = settings: cited from earlier work
[9] = system: B. cereus, S. typhimurium, V. parahaemolyticus, L. monocytogenes, S. aureus and E. coli O157:H7; settings: cited from earlier work
[10] = rat, cited from earlier work
pears and apples = settings: 12.5 μL/L, twenty four hours to seven days exposure; cited from earlier work
mold = settings: 0.86 or 1.71 mmol per 1.1 L container for 2 weeks; cited from earlier work
E. coli = settings: cited from earlier work
[11] = system: A. flavus, P. notatum, A. alternate, F. oxysporum, Cladosporium species, B. subtilis and A. tumerfaciens; settings: cited from earlier work
Penicillium expansum = settings: cited from earlier work
[12] = system: Helicobacter pylori and S. cholerasuis; settings: cited from earlier work
[13] = formaldehyde 0.00312 %, pelargonic acid 0 %
[14] = formaldehyde 0.00625 %, pelargonic acid 0 %
[15] = formaldehyde 0.0125 %, pelargonic acid 0 %
[16] = formaldehyde 0.025 %, pelargonic acid 0 %
[17] = At 5% pelargonic acid, aldehyde by itself
[18] = At 10% pelargonic acid, 20% aldehyde
[19] = formaldehyde 0 %, pelargonic acid 0.00125 %
[20] = formaldehyde 0 %, pelargonic acid 0.0025 %

C=O [Formaldehyde]
Salmonella % reduction [1, 13]: 17.3%
Salmonella % reduction [1, 14]: 39.3%
Salmonella % reduction [1, 15]: 59.0%
Salmonella % reduction [1, 16]: 90.8%
Salmonella % reduction [2, 13]: 17.7%
Salmonella % reduction [2, 14]: 41.0%
Salmonella % reduction [2, 15]: 50.5%
Salmonella % reduction [2, 16]: 88.3%

CC/C=C/CC=O [(3E)-hexenal]
level effective in controlling [3]: 3 to 30 µg/mL

CCCCCC=CC=CC=O [decadienal aldehyde, 2-4-decadienal]
ability to replace trans-2-hexenal (in words) (Salmonella typhimurium [4]): can replace trans-2-hexenal

CCCC=O [butyraldehyde]
effectiveness compared with trans-2-hexenal (in words) (Salmonella typhimurium [4]; [17]): not as effective as trans-2-hexenal
effectiveness compared with trans-2-hexenal (in words) (Salmonella typhimurium [4]; [18]): as effective as 20% trans-2-hexenal
ability to replace trans-2-hexenal (in words) (Salmonella typhimurium [4]): can partially replace trans-2-hexenal

CC(C)=CCCC(C)=CC=O [citral]
effectiveness compared with trans-2-hexenal (in words) (Salmonella typhimurium [4]; [17]): not as effective as trans-2-hexenal
effectiveness compared with trans-2-hexenal (in words) (Salmonella typhimurium [4]; [18]): as effective as 20% trans-2-hexenal
ability to replace trans-2-hexenal (in words) (Salmonella typhimurium [4]): can partially replace trans-2-hexenal
concentration equivalent to 25 ppm trans-2-hexenal and thermal treatment (yeast (10^5 CFU/bottle)): 100-120 ppm

O=CC=Cc1ccccc1 [cinnamaldehyde]
ability to replace trans-2-hexenal (in words) (Salmonella typhimurium [4]): can replace trans-2-hexenal

C=CCCCCCCCCC=O [undecylenic aldehyde]
ability to replace trans-2-hexenal (in words) (Salmonella typhimurium [4]): can replace trans-2-hexenal

CCCCCCCCCC=O [decanal]
ability to replace trans-2-hexenal (in words) (Salmonella typhimurium [4]): can replace trans-2-hexenal

CCCCCCCCCC(=O)O [capric acid]
minimum inhibitory concentration (MIC) (M. gypseum; in liquid media): 75 µg/mL (≈ 435 µM)
minimum inhibitory concentration (MIC) (M. gypseum; on solid media): 20 µg/mL (≈ 116 µM)

O=Cc1ccco1 [furfural]
ability to replace trans-2-hexenal (in words) (Salmonella typhimurium [4]): can replace trans-2-hexenal

CCCCCCCCC(=O)O [Pelargonic acid, Pelargonic acid (nonanoic acid)]
control of parasite growth (in words) (parasite C. irritans): effective in controlling the growth
bactericidal effect (in words) ([1]; at the highest dose tested): not bactericidal
Salmonella % reduction ([1]; formaldehyde 0 %, pelargonic acid 0.000312 %): 0%
Salmonella % reduction ([1]; formaldehyde 0 %, pelargonic acid 0.000625 %): 0%
Salmonella % reduction [1, 19]: 0%
Salmonella % reduction [1, 20]: 0%
effect on the effectiveness of formaldehyde (in words) ([1]; pelargonic acid at 0.00125 and 0.0025%): did appear to increase the effectiveness of formaldehyde
effect on efficacy of trans-2-hexenal (in words) (Salmonella typhimurium [5]): increases the efficacy of trans-2-hexenal
minimum inhibitory concentration (MIC) (M. gypseum; in liquid media): 50 µg/mL (≈ 316 µM)
minimum inhibitory concentration (MIC) (M. gypseum; on solid media): 40 µg/mL (≈ 253 µM)
Salmonella % reduction [2, 19]: 2.1%
Salmonella % reduction [2, 20]: 8.8%
Salmonella % reduction ([2]; formaldehyde 0 %, pelargonic acid 0.005 %): 96.5%
Salmonella % reduction ([2]; formaldehyde 0 %, pelargonic acid 0.01 %): 100%
effect on bactericidal efficacy of formaldehyde (in words) ([2]; pelargonic acid 0.00125% and 0.0025% mixed with formaldehyde): the bactericidal efficacy of formaldehyde was improved
impact on Salmonella reduction (in words) ([2]; pelargonic acid alone at 0.00125% and 0.0025%): did not have a significant impact on Salmonella reduction
potentiation of aldehyde efficacy (in words) (Salmonella typhimurium [4]): potentiates the efficacy of each individual aldehyde and aldehyde combination
effectiveness against Salmonella versus trans-2-hexenal alone (in words) (Salmonella typhimurium [6]; addition of pelargonic acid (5%) to trans-2-hexenal): better effectiveness against Salmonella than trans-2-hexenal by itself

CCC/C=C/C=O [trans-2-hexenal]
concentration that completely inhibited proliferation (P. syringae pathovars): 570 ug/L of air
toxic levels in rats relative to normal intake by humans [7]: 30 times
phytotoxicity (in words) ([8]; apricots): not phytotoxic
phytotoxicity (in words) ([8]; peaches and nectarines at 40 μL/L): phytotoxic
concentration effective at inhibiting growth (Phoma mycelium): 250 µg/mL
effective concentration [9]: 247 mg/L
body weight and intake (in words) ([10]; 4000 ppm in diet, 13 wk): reduction in body weight and intake, but it was not significant
hematological parameters or organ weights (in words) ([10]; dietary levels 260, 640, 1600 or 4000 ppm for 13 wk): did not induce any changes in hematological parameters or organ weights
fruit quality (in words) (pears and apples): did not affect fruit appearance, color, firmness, soluble solids content or titratable acidity
control of mold (in words) (mold): showed promise for control of mold
concentration that completely inhibited proliferation (E. coli): 930 micrograms/L of air
concentration that completely inhibited the growth [11]: 8 ng/L air
concentration necessary to stabilize beverages (yeast (10^5 CFU/bottle); beverages not thermally treated): 35 ppm
concentration controlling yeast in beverages (yeast (10^5 CFU/bottle); with thermal treatment (56° C. for 20 min)): 25 ppm
% Reduction at 13 Days (Salmonella typhimurium [6]; 0.10 kg/ton hexenal): 0%
% Reduction at 13 Days (Salmonella typhimurium [6]; 0.25 kg/ton hexenal): 0%
% Reduction at 13 Days (Salmonella typhimurium [6]; 0.50 kg/ton hexenal): 77.4%
% Reduction at 13 Days (Salmonella typhimurium [6]; 1.00 kg/ton hexenal): 87.1%
concentration effective on controlling (Penicillium expansum): 12.5 μL/L
minimum biocidal activity [12]: 800 µg/mL
minimum inhibitory activity [12]: 400 µg/mL
